Measurements taken from ChEMBL document CHEMBL2424637, “Nucleophilic substitution reactions of 1,4-naphthoquinone and biologic properties of novel S-, S,S-, N-, and N,S-substituted 1,4-naphthoquinone derivatives” (2013).
Converted amounts (≈) assume the structure as drawn. The source made the active and inactive calls. The calls are words filed in the database; no cut-off is given here.

Legend:
Assay type in all cases: functional
Staphylococcus aureus [1] = assay: Antibacterial activity against Staphylococcus aureus 209-P at 0.5% after 24 hrs by agar disk diffusion technique
Aspergillus niger [2] = assay: Antifungal activity against Aspergillus niger F-1119 at 0.1% after 48 to 72 hrs by agar disk diffusion technique
Escherichia coli [3] = assay: Antibacterial activity against Escherichia coli B-906 at 0.1% after 24 hrs by agar disk diffusion technique
Yamadazyma tenuis [4] = assay: Antifungal activity against Candida tenuis VKM Y-70 at 0.1% after 48 to 72 hrs by agar disk diffusion technique
Staphylococcus aureus [5] = assay: Antibacterial activity against Staphylococcus aureus 209-P after 24 to 72 hrs by serial dilution technique
Escherichia coli [6] = assay: Antibacterial activity against Escherichia coli B-906 at 0.5% after 24 hrs by agar disk diffusion technique
Staphylococcus aureus [7] = assay: Antibacterial activity against Staphylococcus aureus 209-P at 0.1% after 24 hrs by agar disk diffusion technique
Aspergillus niger [8] = assay: Antifungal activity against Aspergillus niger F-1119 at 0.5% after 48 to 72 hrs by agar disk diffusion technique
Mycobacterium [9] = assay: Antibacterial activity against Mycobacterium luteum B-917 after 24 to 72 hrs by serial dilution technique
Yamadazyma tenuis [10] = assay: Antifungal activity against Candida tenuis VKM Y-70 at 0.5% after 48 to 72 hrs by agar disk diffusion technique
Mycobacterium [11] = assay: Antibacterial activity against Mycobacterium luteum B-917 at 0.5% after 24 hrs by agar disk diffusion technique
Yamadazyma tenuis [12] = assay: Antifungal activity against Candida tenuis VKM Y-70 after 24 to 72 hrs by serial dilution technique
Aspergillus niger [13] = assay: Antifungal activity against Aspergillus niger F-1119 after 24 to 72 hrs by serial dilution technique
Mycobacterium [14] = assay: Antibacterial activity against Mycobacterium luteum B-917 at 0.1% after 24 hrs by agar disk diffusion technique
Escherichia coli [15] = assay: Antibacterial activity against Escherichia coli B-906 after 24 to 72 hrs by serial dilution technique

| Compound | diameter of the inhibition zone (DIZ) (Staphylococcus aureus [1]) [mm] | diameter of the inhibition zone (DIZ) (Aspergillus niger [2]) [mm] | diameter of the inhibition zone (DIZ) (Escherichia coli [3]) [mm] | diameter of the inhibition zone (DIZ) (Yamadazyma tenuis [4]) [mm] | MIC (Staphylococcus aureus [5]) | diameter of the inhibition zone (DIZ) (Escherichia coli [6]) [mm] | diameter of the inhibition zone (DIZ) (Staphylococcus aureus [7]) [mm] | diameter of the inhibition zone (DIZ) (Aspergillus niger [8]) [mm] | MIC (Mycobacterium [9]) | diameter of the inhibition zone (DIZ) (Yamadazyma tenuis [10]) [mm] | diameter of the inhibition zone (DIZ) (Mycobacterium [11]) [mm] | MIC (Yamadazyma tenuis [12]) | MIC (Aspergillus niger [13]) | diameter of the inhibition zone (DIZ) (Mycobacterium [14]) [mm] | MIC (Escherichia coli [15]) | inhibition zone (IZ) (Yamadazyma tenuis [4]) [mm] |
| --- | --- | --- | --- | --- | --- | --- | --- | --- | --- | --- | --- | --- | --- | --- | --- | --- |
| CCOC1=C(N(CC)Cc2ccncc2)C(=O)c2ccccc2C1=O | 0 | 8 | 0 | 12.4 | 62.5 µg/mL (≈ 186 µM) | 0 | 0 | 19 | 125 µg/mL (≈ 372 µM) | 20 | 7.4 | 62.5 µg/mL (≈ 186 µM) | 31.2 µg/mL (≈ 92.7 µM) | 0 | inactive | – |
| CN[C@H](CC(C)C)C(=O)N[C@H]1C(=O)N[C@@H](CC(N)=O)C(=O)N[C@H]2C(=O)N[C@H]3C(=O)N[C@H](C(=O)N[C@H](C(=O)O)c4cc(O)cc(O)c4-c4cc3ccc4O)[C@H](O)c3ccc(c(Cl)c3)Oc3cc2cc(c3O[C@@H]2O[C@H](CO)[C@@H](O)[C@H](O)[C@H]2O[C@H]2C[C@](C)(N)[C@H](O)[C@H](C)O2)Oc2ccc(cc2Cl)[C@H]1O [VANCOMYCIN] | – | – | 14 | – | – | – | 15 | – | – | – | – | – | – | 18 | – | – |
| O=C1C(Sc2c(Cl)c(Cl)c(Cl)c(Cl)c2Cl)=C(N2CCSCC2)C(=O)c2ccccc21 | 0 | 0 | 0 | 0 | inactive | 0 | 0 | 0 | inactive | 0 | 0 | 125 µg/mL (≈ 232 µM) | inactive | 0 | inactive | – |
| CCCCOC(=O)CCSC1=C(Sc2ccc(O)cc2)C(=O)c2ccccc2C1=O | 0 | 0 | 0 | 0 | inactive | 0 | 0 | 0 | inactive | 0 | 6 | inactive | inactive | 0 | inactive | – |
| CCCCOC(=O)CCSC1=C(SCCC(=O)OCCCC)C(=O)c2ccccc2C1=O | 0 | 0 | 0 | 0 | inactive | 0 | 0 | 6 | inactive | 0 | 0 | inactive | inactive | 0 | inactive | – |
| CSc1ccc(SC2=C(Sc3ccc(SC)cc3)C(=O)c3ccccc3C2=O)cc1 | 8.7 | 0 | 0 | 0 | 250 µg/mL (≈ 536 µM) | 0 | 0 | 6 | 125 µg/mL (≈ 268 µM) | 0 | 11 | inactive | 500 µg/mL (≈ 1070 µM) | 8.7 | inactive | – |
| CCCCOC(=O)CCSC1=C(Sc2c(Cl)c(Cl)c(Cl)c(Cl)c2Cl)C(=O)c2ccccc2C1=O | 0 | 0 | 0 | 0 | inactive | 0 | 0 | 6 | 125 µg/mL (≈ 209 µM) | 0 | 0 | inactive | inactive | 0 | inactive | – |
| O=C1C(Cl)=C(N2CCN(CCO)CC2)C(=O)c2ccccc21 | 20.7 | 0 | 6 | 0 | 62.5 µg/mL (≈ 195 µM) | 8 | 11.4 | 0 | 31.2 µg/mL (≈ 97.3 µM) | 0 | 28.7 | 125 µg/mL (≈ 390 µM) | 125 µg/mL (≈ 390 µM) | 16 | 500 µg/mL (≈ 1560 µM) | – |
| CC1CCC(C(C)(C)SC2=C(SC(C)(C)C3CCC(C)CC3=O)C(=O)c3ccccc3C2=O)C(=O)C1 (centres undefined) | 0 | 0 | 0 | 0 | inactive | 0 | 0 | 6 | 500 µg/mL (≈ 949 µM) | 7.4 | 0 | inactive | 500 µg/mL (≈ 949 µM) | 0 | inactive | – |
| CCCCOC(=O)CCSC1=C(N2CCC3(CC2)OCCO3)C(=O)c2ccccc2C1=O | 0 | 7 | 0 | 0 | inactive | 0 | 0 | 9 | 125 µg/mL (≈ 272 µM) | 0 | 0 | inactive | 62.5 µg/mL (≈ 136 µM) | 0 | inactive | – |
| O=C1C(Sc2c(Cl)c(Cl)c(Cl)c(Cl)c2Cl)=C(N2CCCCC2)C(=O)c2ccccc21 | 0 | 0 | 0 | 0 | inactive | 0 | 0 | 0 | inactive | 0 | 0 | inactive | inactive | 0 | inactive | – |
| NYSTATIN | – | – | – | – | – | – | – | – | – | – | – | – | – | – | – | 19 |
| COC(=O)CCSC1=C(N2CCC3(CC2)OCCO3)C(=O)c2ccccc2C1=O | 0 | 0 | 0 | 0 | inactive | 0 | 0 | 8.4 | 250 µg/mL (≈ 599 µM) | 0 | 12.6 | inactive | 500 µg/mL (≈ 1200 µM) | 0 | inactive | – |
| O=C1C(Sc2c(Cl)c(Cl)c(Cl)c(Cl)c2Cl)=C(N2CCCC2)C(=O)c2ccccc21 | 0 | 0 | 0 | 0 | inactive | 0 | 0 | 0 | inactive | 0 | 0 | inactive | inactive | 0 | inactive | – |
| O=C1C(Sc2c(Cl)c(Cl)c(Cl)c(Cl)c2Cl)=C(N2CCN(c3ccc(F)cc3)CC2)C(=O)c2ccccc21 | 0 | 0 | 0 | 0 | inactive | 0 | 0 | 0 | 125 µg/mL (≈ 203 µM) | 0 | 0 | inactive | inactive | 0 | inactive | – |
